# Source: PubChem BioAssay AID1963970 (Molecular Pharmacology Branch, DTP, NCI, 2024)
# Tested on: 931267-113-T-J1-PDC multicell spheroid viability
# Test: Anticancer human tumor 931267-113-T-J1-PDC patient-derived colon adenocarcinoma cell line growth inhibition [PI3K]
# Details: for IC50: curve of first compound; for viability, T/C: stronger effect = lower value
# Summary of the method: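 Tumor cells grown as multi-cell spheroids with HUVEC endothelial cells and MSC fibroblast-like stroma were treated with targeted agents combined with inavolisib, alpelisib, duvelisib or copanlisib. Doses fell in half-log steps from near clinical Cmax, else from 10 microM. Viability was measured.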
# 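Note: viability read 7 days after compound addition.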
smiles,measurement,setting,value
CNC(=O)c1ccc(N2C(=S)N(c3ccc(C#N)c(C(F)(F)F)c3)C(=O)C2(C)C)cc1F + CC(Nc1ncnc2nc[nH]c12)c1cc2cccc(Cl)c2c(=O)n1-c1ccccc1,IC50,second compound 0.0316 µM,> 10000 nM
same,IC50,second compound 0.1 µM,> 10000 nM
same,IC50,second compound 0.316 µM,> 10000 nM
same,IC50,second compound 1 µM,> 10000 nM
same,IC50,second compound 3.16 µM,> 10000 nM
same,IC50,second compound 10 µM,> 10000 nM
same,"viability, T/C","second compound 0.0316 µM, first compound 0.0316 µM",107%
same,"viability, T/C","second compound 0.0316 µM, first compound 0.1 µM",96.7%
same,"viability, T/C","second compound 0.0316 µM, first compound 0.316 µM",113%
same,"viability, T/C","second compound 0.0316 µM, first compound 1 µM",97.2%
same,"viability, T/C","second compound 0.0316 µM, first compound 3.16 µM",111%
same,"viability, T/C","second compound 0.0316 µM, first compound 10 µM",109%
same,"viability, T/C","second compound 0.1 µM, first compound 0.0316 µM",108%
same,"viability, T/C","second compound 0.1 µM, first compound 0.1 µM",101%
same,"viability, T/C","second compound 0.1 µM, first compound 0.316 µM",104%
same,"viability, T/C","second compound 0.1 µM, first compound 1 µM",104%
same,"viability, T/C","second compound 0.1 µM, first compound 3.16 µM",101%
same,"viability, T/C","second compound 0.1 µM, first compound 10 µM",103%
same,"viability, T/C","second compound 0.316 µM, first compound 0.0316 µM",103%
same,"viability, T/C","second compound 0.316 µM, first compound 0.1 µM",104%
same,"viability, T/C","second compound 0.316 µM, first compound 0.316 µM",100%
same,"viability, T/C","second compound 0.316 µM, first compound 1 µM",107%
same,"viability, T/C","second compound 0.316 µM, first compound 3.16 µM",115%
same,"viability, T/C","second compound 0.316 µM, first compound 10 µM",103%
same,"viability, T/C","second compound 1 µM, first compound 0.0316 µM",102%
same,"viability, T/C","second compound 1 µM, first compound 0.1 µM",103%
same,"viability, T/C","second compound 1 µM, first compound 0.316 µM",96.6%
same,"viability, T/C","second compound 1 µM, first compound 1 µM",102%
same,"viability, T/C","second compound 1 µM, first compound 3.16 µM",117%
same,"viability, T/C","second compound 1 µM, first compound 10 µM",109%
same,"viability, T/C","second compound 3.16 µM, first compound 0.0316 µM",100%
same,"viability, T/C","second compound 3.16 µM, first compound 0.1 µM",98.9%
same,"viability, T/C","second compound 3.16 µM, first compound 0.316 µM",92.4%
same,"viability, T/C","second compound 3.16 µM, first compound 1 µM",103%
same,"viability, T/C","second compound 3.16 µM, first compound 3.16 µM",96.5%
same,"viability, T/C","second compound 3.16 µM, first compound 10 µM",104%
same,"viability, T/C","second compound 10 µM, first compound 0.0316 µM",99%
same,"viability, T/C","second compound 10 µM, first compound 0.1 µM",97.9%
same,"viability, T/C","second compound 10 µM, first compound 0.316 µM",93.9%
same,"viability, T/C","second compound 10 µM, first compound 1 µM",96.1%
same,"viability, T/C","second compound 10 µM, first compound 3.16 µM",102%
same,"viability, T/C","second compound 10 µM, first compound 10 µM",84.4%
Cn1cnc2c(F)c(Nc3ccc(Br)cc3Cl)c(C(=O)NOCCO)cc21 + CC(Nc1ncnc2nc[nH]c12)c1cc2cccc(Cl)c2c(=O)n1-c1ccccc1,IC50,second compound 0.0316 µM,123 nM
same,IC50,second compound 0.1 µM,133 nM
same,IC50,second compound 0.316 µM,117 nM
same,IC50,second compound 1 µM,107 nM
same,IC50,second compound 3.16 µM,96.7 nM
same,IC50,second compound 10 µM,61.6 nM
same,"viability, T/C","second compound 0.0316 µM, first compound 0.00949 µM",84%
same,"viability, T/C","second compound 0.0316 µM, first compound 0.03 µM",71.9%
same,"viability, T/C","second compound 0.0316 µM, first compound 0.0949 µM",51.7%
same,"viability, T/C","second compound 0.0316 µM, first compound 0.3 µM",38.4%
same,"viability, T/C","second compound 0.0316 µM, first compound 0.949 µM",23%
same,"viability, T/C","second compound 0.0316 µM, first compound 3 µM",12.8%
same,"viability, T/C","second compound 0.1 µM, first compound 0.00949 µM",89.1%
same,"viability, T/C","second compound 0.1 µM, first compound 0.03 µM",80.1%
same,"viability, T/C","second compound 0.1 µM, first compound 0.0949 µM",55.4%
same,"viability, T/C","second compound 0.1 µM, first compound 0.3 µM",33.1%
same,"viability, T/C","second compound 0.1 µM, first compound 0.949 µM",25.1%
same,"viability, T/C","second compound 0.1 µM, first compound 3 µM",13.6%
same,"viability, T/C","second compound 0.316 µM, first compound 0.00949 µM",92.1%
same,"viability, T/C","second compound 0.316 µM, first compound 0.03 µM",77.9%
same,"viability, T/C","second compound 0.316 µM, first compound 0.0949 µM",51.8%
same,"viability, T/C","second compound 0.316 µM, first compound 0.3 µM",33.4%
same,"viability, T/C","second compound 0.316 µM, first compound 0.949 µM",23.1%
same,"viability, T/C","second compound 0.316 µM, first compound 3 µM",12.9%
same,"viability, T/C","second compound 1 µM, first compound 0.00949 µM",88.8%
same,"viability, T/C","second compound 1 µM, first compound 0.03 µM",72%
same,"viability, T/C","second compound 1 µM, first compound 0.0949 µM",51.6%
same,"viability, T/C","second compound 1 µM, first compound 0.3 µM",32.3%
same,"viability, T/C","second compound 1 µM, first compound 0.949 µM",24.4%
same,"viability, T/C","second compound 1 µM, first compound 3 µM",10.6%
same,"viability, T/C","second compound 3.16 µM, first compound 0.00949 µM",74%
same,"viability, T/C","second compound 3.16 µM, first compound 0.03 µM",69.2%
same,"viability, T/C","second compound 3.16 µM, first compound 0.0949 µM",48.1%
same,"viability, T/C","second compound 3.16 µM, first compound 0.3 µM",31.9%
same,"viability, T/C","second compound 3.16 µM, first compound 0.949 µM",21.4%
same,"viability, T/C","second compound 3.16 µM, first compound 3 µM",11%
same,"viability, T/C","second compound 10 µM, first compound 0.00949 µM",79.2%
same,"viability, T/C","second compound 10 µM, first compound 0.03 µM",62.8%
same,"viability, T/C","second compound 10 µM, first compound 0.0949 µM",41%
same,"viability, T/C","second compound 10 µM, first compound 0.3 µM",29%
same,"viability, T/C","second compound 10 µM, first compound 0.949 µM",15.2%
same,"viability, T/C","second compound 10 µM, first compound 3 µM",7.35%
